Measured values taken from patent US10975064B2, “RIP1 inhibitory compounds and methods for making and using the same” (Rigel Pharmaceuticals, Inc., priority 2018, dated 2021).

Tested on: TNF-alpha induced hypothermia
Experiment: acute hypothermia mouse model
Format: in vivo
Settings: 15 mg/kg, oral gavage, C57BL/6 mice
Description: In this example, an acute hypothermia mouse model assay was used to evaluate the ability of compounds disclosed herein to inhibit TNF-alpha induced hypothermia. Female C57BL/6 mice are randomly grouped and weighed on Day-1. On the day of the study (Day 0), mice are administered vehicle or test article by oral gavage. Fifteen minutes after oral administration of test agents, each mouse is administered an intraperitoneal (IP) injection of solution containing recombinant human tumor necrosis factor alpha (TNF-a, 25.0 μg) and zVAD-FMK (200 μg). Body temperature is measured at hour zero (before IP injections) and every hour via rectal probe temperature measuring device. Three (3) hours after IP injections of TNF-a and zVAD/FMK, mice are euthanized by CO2 asphyxiation and blood is collected via cardiac puncture. Serum and plasma are harvested for determination of cytokine and compound levels, respectively. Separate groups of mice (satellite mice) are included for the determination of compound levels in plasma at the time of administration of TNFa/zVAD-FMK. (S)-5-benzyl-N-(5-methyl-4-oxo-2,3,4,5-tetrahydrobenzo[b][1,4]oxazepin-3-yl)-4H-1,2,4-triazole-3-carboxamide (WO 2014/125444), having a structure as illustrated below, was used as a comparative compound and was examined using the same assay protocol.

SMILES: CN1C(=O)[C@@H](NC(=O)c2n[nH]c(Cc3ccccc3)n2)COc2ccc(N3CC4(CCOCC4)C3)cc21 [Compound I-5, (S)-5-benzyl-N-(5-methyl-4-oxo-7-(7-oxa-2-azaspiro[3.5]nonan-2-yl)-2,3,4,5-tetrahydrobenzo[b][1,4]oxazepin-3-yl)-1H-1,2,4-triazole-3-carboxamide]
- inhibition of TNF-alpha induced hypothermia: 81%
